Reference: paper PMC12010006, “Subnanomolar MAS-related G protein-coupled receptor-X2/B2 antagonists with efficacy in human mast cells and disease models” (Signal Transduction and Targeted Therapy, 2025)

What was measured:
MRGPRX2 [1] = target: T1, MRGPRX2 (Homo sapiens, UniProt Q96LB1); assay: β-arrestin recruitment assay (antagonist mode), β-arrestin-CHO cells recombinantly expressing MRGPRX2; type: cell-based; design: expressed in transfected cells; settings: for Ki: versus CST-14 (EC80 1,000 nM, EC50 483 nM), Cheng-Prusoff, read-out: β-Arrestin assay Ki ± SEM
T1 sequence (Q96LB1 1-330): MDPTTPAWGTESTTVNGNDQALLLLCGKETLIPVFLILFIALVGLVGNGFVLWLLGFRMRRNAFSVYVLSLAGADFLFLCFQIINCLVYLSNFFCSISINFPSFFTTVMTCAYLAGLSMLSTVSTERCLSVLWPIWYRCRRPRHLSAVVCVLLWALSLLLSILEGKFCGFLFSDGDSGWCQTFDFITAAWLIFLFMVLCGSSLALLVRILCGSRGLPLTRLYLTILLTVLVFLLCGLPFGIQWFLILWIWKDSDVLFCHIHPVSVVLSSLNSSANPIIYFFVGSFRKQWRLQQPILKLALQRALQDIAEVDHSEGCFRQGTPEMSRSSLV

MRGPRX2 [2] = target: T1, MRGPRX2; assay: Ca2+ mobilization assay, LN229 cells overexpressing MRGPRX2; type: cell-based; design: expressed in transfected cells; host or cells: LN229 human glioblastoma cells; plasmid pLXSN-MRGPRX2 (Addgene #213960); settings: for Ki: versus CST-14 (EC80 800 nM, EC50 452 nM), Cheng-Prusoff, read-out: Ca2+ assay Ki ± SEM; for MRGPRX2 antagonistic potency in Ca2+ assay, in words: versus CST-14
Protocol: Glioblastoma LN229-MRGPRX2 stably expressing MRGPRX2 (produced by retroviral transfection) were seeded into black sterile 96-well microplates at a density of 5 × 10^4 cells/well in 200 µL of DMEM/F12-Nut Mix medium, supplemented with 10% FCS, 100 U/mL of penicillin 100 µg/mL of streptomycin, and 200 µg/mL of G418 and incubated for 18–22 h.
The next day Fluo-4 AM Solution (1 mM) (Thermo Fisher Scientific) was prepared and used to prepare cell loading dye solution consisting of 4970 µL of Hank’s Buffered Saline Solution (HBSS) buffer, 15 µL of 20% Pluronic-F and 15 µL of 1 mM Fluo-4 AM. Next, the cell medium was removed and exchanged for 40 µL of dye solution per well (final concentration of Fluo-4 AM: 3 µM). The cell plate was incubated for 60 min in the dark at room temperature, then the dye solution was removed and replaced by 189 µL HBSS. Subsequently, 1 µL of antagonist diluted in DMSO was added and incubated for 30 min at room temperature and in the dark (final DMSO concentration 0.5%, v/v). CST-14 or another agonist prepared in HBSS as well as carbachol (final concentration 100 µM) were pipetted (10 µL) using a FlexStation® 3 Multi-Mode Microplate Reader. For the determination of baseline fluorescence, HBSS buffer containing solvent of the investigated compound was used. Fluorescence was measured for 120 intervals of 1 s (number of flashes: 10) at a wavelength of 525 nm (excitation 485 nm) using the SoftMax® Pro5.1 Microplate Data Acquisition & Analysis Software. Three independent experiments were performed in duplicates. Measurements are provided in relative fluorescence units and normalized to the maximal effect of CST-14.

MRGPRX2 [3] = target: T1, MRGPRX2; assay: β-arrestin assay (agonist mode), β-arrestin CHO cells recombinantly expressing MRGPRX2; type: cell-based; settings: for EC50: agonist test, read-out: β-Arrestin assay EC50 ± SEM; for β-Arrestin assay % activation: normalized to CST-14 (EC80 5,000 nM)
Description: Eurofins DiscoverX (Fremont, CA, USA) provided engineered Chinese hamster ovary (CHO) cells stably expressing β-arrestin-2 fused to a large β-galactosidase fragment (enzyme acceptor, EA). These CHO-K1-β-arrestin-2 cells were commercially available (93-0164). CHO-K1-β-arrestin-2 cells that additionally expressed MRGPRX1, -2, or -4 fused to the fragment ProLink™ (PK) were also purchased from the same company (93-0919C2, 93-0309C2, and 3-0541C2A, respectively). CHO cells expressing MRGPRX3 were generated as previously […].[31] The cells were grown in F-12 Ham Nutrient Mixture (Life Technologies) supplemented with 10% FBS, 100 U/mL of penicillin, 100 µg/mL of streptomycin (PAN-Biotech), 300 μg/mL of hygromycin B (PAN-Biotech), and 800 μg/mL of gentamicin (PAN-Biotech) at 37 °C and 5% CO2.).
The assays were carried out as previously described.[22] […] After 30 min of incubation at 37 °C and 5% CO2, Cortistatin-14 (CST-14, Bioscience, Bristol, United Kingdom) or another MRGPRX2 agonist that served as a standard agonist was added, and the mixture was incubated for 90 min at 37 °C and 5% CO2. Next, a detection reagent (50 µL, DiscoverX) was added, and the mixture was incubated at room temperature in the dark for 60 min. Chemiluminescence was measured on a Mithras LB 940 plate reader (Berthold Technologies, Bad Wildbad, Germany). The results represent means ± SEM of three to five independent experiments, each in duplicates.
^d β-Arrestin CHO cells recombinantly expressing MRGPRX2
^f Percentage of activation of normalized to CST-14 (EC80 5,000 nM)

[4] = Metabolic stability in human liver microsomes; type: in vitro ADME; settings: both sexes, human liver microsomes 0.25 mg/ml, compound 1 µM

Ki (MRGPRX2 [2]) | Ki (MRGPRX2 [1]) | EC50 (MRGPRX2 [3]) | β-Arrestin assay % activation (MRGPRX2 [3]) | MRGPRX2 antagonistic potency in Ca2+ assay, in words (MRGPRX2 [2]) | Structure (SMILES) | other results
238 nM | 1050 nM | > 10000 nM | -2% |  | CCc1c(C)[nH]c2nc3ccccc3n2c1=O [Compound 2] | 
 |  | > 10000 nM | 0% |  | Cc1cc(=O)n2c(nc3ccccc32)[nH]1 [Compound 4] | 
4260 nM | 1050 nM | > 10000 nM | 0% |  | CC(C)c1cc(=O)n2c(nc3ccccc32)[nH]1 [Compound 7] | 
18.5 ± 13.7 nM | 152 ± 33.8 nM | > 10000 nM | -2% |  | CCc1c(CC(C)C)[nH]c2nc3ccccc3n2c1=O [Compound 12] | 
 |  | > 10000 nM | -2% |  | CCc1c(-c2cccs2)[nH]c2nc3ccccc3n2c1=O [Compound 16] | 
 |  | > 10000 nM | -1% | completely inactive | CSc1cc(C(C)C)nc2nc3ccccc3n12 [Compound 19] | 
 |  | > 10000 nM | 0% | inactive | Cc1cc(=O)n2c(n1)oc1ccccc12 [Compound 22] | 
0.322 nM | 47.8 ± 9.77 nM | > 10000 nM | -3% | subnanomolar potencies | CCc1c(C(C)C)[nH]c2nc3ccc(C)cc3n2c1=O [Compound 28] | fold improved potency compared to 27 (MRGPRX2 [2]): 20 fold
0.161 nM | 29.6 ± 19 nM | > 10000 nM | -2% | subnanomolar potencies | CCc1c(C(C)C)[nH]c2nc3cc(C)ccc3n2c1=O [Compound 29] | fold improved potency compared to 27 (MRGPRX2 [2]): 40 fold
 |  | > 10000 nM | 1% | abolished antagonistic activity | CCc1c(C(C)C)[nH]c2nc3c(C)cccc3n2c1=O [Compound 31] | 
931 ± 685 nM | 824 ± 553 nM | > 10000 nM | -3% | reduced potency dramatically | CCc1c(C(C)C)[nH]c2nc3ncc(F)cc3n2c1=O [Compound 32] | 
906 ± 137 nM | 1610 nM |  |  | reduced potency dramatically | CCc1c(C(C)C)[nH]c2nc3nc(F)ccc3n2c1=O [Compound 33] | half-life at 1 µM ([4]; human, liver microsomes, read-out: T1/2 (half-life)): 48.8 min; microsomal CLint at 1 µM ([4]; read-out: Clint (intrinsic clearance)): 28.4 µL/min/mg

The remaining lines, values behind:

Structure (SMILES) | Ki (MRGPRX2 [2]) | Ki (MRGPRX2 [1]) | EC50 (MRGPRX2 [3]) | β-Arrestin assay % activation (MRGPRX2 [3]) | MRGPRX2 antagonistic potency in Ca2+ assay, in words (MRGPRX2 [2]) | other results
CN(C)[C@@H]1CCN(c2cc(-c3ccccc3)nc3ccnn23)C1 [(R)-ZINC-3573, reference compound] |  |  |  |  |  | EC80 of agonist, β-arrestin assay (MRGPRX2 [1]): 2000 nM; EC50 (MRGPRX2 [1]; without antagonist, read-out: EC50 of (R)-ZINC-3573, shift assay): 2020 ± 333 nM
Cc1[nH]c2nc3ccccc3n2c(=O)c1C [Compound 3] | 1040 nM | 3780 nM | > 10000 nM | 1% |  | fold decrease in potency (MRGPRX2 [2]; 3-methyl compared to 3-ethyl (2)): 4 fold
O=c1cc[nH]c2nc3ccccc3n12 [Compound 5, benzo[4,5]imidazo[1,2-α]pyrimidin-4(1H)-one] |  |  | > 10000 nM | -1% |  | 
CCCc1cc(=O)n2c(nc3ccccc32)[nH]1 [Compound 6, 2-Propylbenzo[4,5]imidazo[1,2-a]pyrimidin-4(1H)-one] | 4730 nM | 4790 nM | > 10000 nM | 1% |  | 
CCCc1[nH]c2nc3ccccc3n2c(=O)c1CC [Compound 8] | 25.8 nM | 90.5 ± 7.03 nM | > 10000 nM | -1% |  | 
CCCc1[nH]c2nc3ccccc3n2c(=O)c1CCC [Compound 9] | 16.6 ± 10.9 nM | 69.7 ± 20.8 nM | > 10000 nM | -1% |  | 
CCc1c(C(C)C)[nH]c2nc3ccccc3n2c1=O [Compound 10] | 0.895 nM | 94.4 ± 63.8 nM | > 10000 nM | -1% | subnanomolar potencies | fold increase in potency compared to hit compound 1 (MRGPRX2 [2]): 275 fold
CCCc1c(C(C)C)[nH]c2nc3ccccc3n2c1=O [Compound 11] | 43.3 ± 24.5 nM | 166 ± 69.7 nM | > 10000 nM | 1% |  | 
CCc1c(C(C)(C)C)[nH]c2nc3ccccc3n2c1=O [Compound 13] | 8.44 nM | 113 ± 42.3 nM | > 10000 nM | -1% |  | 
CCc1c(C2CC2)[nH]c2nc3ccccc3n2c1=O [Compound 14] | 69.7 nM | 384 ± 214 nM | > 10000 nM | 0% |  | 
CCc1c(-c2ccccc2)[nH]c2nc3ccccc3n2c1=O [Compound 15] | 364 nM | 175 ± 49.5 nM | > 10000 nM | 0% |  | 
Cc1cc(=S)n2c(nc3ccccc32)[nH]1 [Compound 17] |  |  | > 10000 nM | -3% |  | 
CC(C)c1cc(=S)n2c(nc3ccccc32)[nH]1 [Compound 18] | 1.42 nM | 48.2 ± 1.08 nM | > 10000 nM | -1% |  | fold increase in potency compared to 7 (MRGPRX2 [2]): ~3000 fold
CCc1c(C)n(C)c2nc3ccccc3n2c1=O [Compound 20] |  |  | > 10000 nM | 1% | not tolerated | 
CC(C)c1cc(=O)n2c3ccccc3n(C)c2n1 [Compound 21] |  |  | > 10000 nM | -1% | not tolerated | 
Cc1cc(=O)n2c(n1)sc1ccccc12 [Compound 23] |  |  | > 10000 nM | -1% | inactive | 
CCc1c(C(C)C)[nH]c2nc3cc(Cl)c(Cl)cc3n2c1=O [Compound 25] | 2.98 nM | 155 ± 56.6 nM | > 10000 nM | 1% |  | 
CCc1c(C(C)C)[nH]c2nc3cc(Br)c(Br)cc3n2c1=O [Compound 26] | 13.3 nM | 289 ± 119 nM | > 10000 nM | -1% |  | 
CN(C)CCCN1c2ccccc2CCc2ccc(Cl)cc21 [clomipramine, reference compound] |  |  |  |  |  | EC80 of agonist, β-arrestin assay (MRGPRX2 [1]): 13000 nM
